From patent US4847253A, “Antiparkinson ergoline derivatives” (Farmitalia Carlo Erba, priority 1987, dated 1989)
“Also recorded” adds a separate entry of the source.

Experiments:
[1] = system: apomorphine-induced climbing; experiment: Antagonism to apomorphine-induced climbing in normal mice; type: in vivo; conditions: for ED50: Mus musculus, po
Method: The anti-dopaminergic activity in normal mice of the ergoline derivatives according to the invention was assessed by the antagonism to apomorphine-induced climbing (Protais, P. et al., Psychopharmacology, 50, 1, 1976).

6-OHDA lesioned rats = experiment: Contralateral turning behavior in 6-OHDA lesioned rats; type: in vivo, Male (ICR) Wistar rats; conditions: scored for six hours
Method: The profile of dopamine agonists of the compound of the formula I was preliminary discovered by an induction of contralateral turning in rats with unilateral 6-hydroxy dopamine-induced lesions of the dopaminergic nigrostriatal pathway (according to the principles of U. Ungerstedt et al., Brain Research 24 (1970); p. 485).
Male (ICR) Wistar rats (290-310 g) anaesthetized i.p. with 50 mg/kg pentobarbital sodium were placed in a Stoelting stereotaxis frame and unilaterally injected with 6-hydroxy-dopamine (6-OHDA) in substantia nigra, pars compacta (8 μg of free base in 4 μl of saline kept ice cold with 0.2% ascorbic acid at the rate of 1 μl/min.). The neurotoxin was injected via a 10 μl Hamilton syringe under the following coordinates: A, 3.7 mm anterior to interaural line; V. 2.2 mm dorsal to interaural line; L, 2.2 mm from midline, according to Paxinos and Watson (The rat brain in stereotaxic coordinates. Academic Press, Sydney, Australia, 1982).
The needle was left in place 5 minutes further before being slowly withdrawn.
Following recovery from anaesthesia, rats were housed in a cage and given access to food and water ad libitum. After a 3 week recovery, rats were injected with apomorphine (0.5 mg/kg s.c.) and immediately put in automated rotometer bowls with a printing unit for 3 hours.
Only rats showing contralateral turning behavior totalling at least 250 complete turns within the control time, were used for the test with the compounds.
The test compounds were injected subcutaneously and rotational behavior scored each time for six hours.
All tested compounds were administered in a fixed volume (2 ml/kg body weight).

[2] = known side effects, background; cited from earlier work
Reserpine-Treated Mice = experiment: Locomotor activity in reserpine-treated mice; type: in vivo, Male mice, Crl:CD-1 (ICR) BR strain; conditions: for No. of counts in 85 min.: reserpine 5 mg/kg i.p. pretreated; for locomotor activity in akinetic reserpinized mice: result in words, FCE 23884 at 1 mg/kg s.c.
Method: Male mice, (22-25 g) of the Crl:CD^R -1 (ICR) BR strain, were used. Injection volume for drugs was 0.5 ml/100 g body weight. Locomotor activity in mice was examined from 5 up to 90 min. by use of two "Columbus activity Meters" placing 5 animals per cage after each treatment. Comparison was made with reserpine treated animals (5 mg/kg i.p.) receiving saline (controls).
Groups of five mice were used each time. Eighteen hours reserpine pretreated mice were subcataneously injected with the test compound or apomorphine or saline.
Five minutes later, the animals were tested for locomotor activity according D. Hinzen et al., European Journal of Pharmacology 131 (1986) 75-86.

MPTP treated monkeys = experiment: MPTP-induced parkinsonism in monkey model; type: in vivo, Marmosets and cynomolgus
Description: In nonhuman primates MPTP (1-methyl-4-phenyl-1,2,3,6-tetrahydropyridine) selectively destroys dopaminergic neurons in the substantia nigra pars compacta as has been shown in different primate species (1) (2) including the common marmoset and cynomolgus.
Repeated administration of MPTP produces varying degrees of akinesia or bradykinesia accompanied by rigidity of limbs, loss of vocalization and postural tremor.
Marmosets and cynomolgus were employed in these experiments. Each animal was administered a variable dosage regime showing them to have an individual susceptibility to MPTP according to Jenner et al. (3).
For the marmoset the cumulative dose was between 11-29 mg/kg i.p. over time courses of 4-10 days for three marmosets and 10-12 mg/kg i.p. for two cynomolgus in 4 days. All the monkeys were severely affected, completely akinetic and rigid with loss of vocalization, and blink reflex, with some postural tremor and were rendered unable to eat by themselves. After two or three days of wash-out to avoid the acute effect of MPTP administration, compound FCE 23884 was injected subcutaneously once a day starting from the dose 0.1 mg/kg up to 2 mg/kg.
Saline was administered in alternate fashion every three treatements to avoid the normal described improvement after the suspension of MPTP administration.

non-MPTP treated monkeys = experiment: Behavior in non-MPTP treated monkeys; type: in vivo; conditions: s.c.

SMILES	No. of contralateral turns (X) in turning rats (6-OHDA lesioned rats; 1.0 mg/kg s.c.)	Turning rats/Treated rats (6-OHDA lesioned rats; 1.0 mg/kg s.c.)	ED50 [1]	locomotor activity in akinetic reserpinized mice (Reserpine-Treated Mice)	also measured
CC(C)C[C@H]1C(=O)N2CCC[C@H]2[C@]2(O)O[C@](NC(=O)[C@@H]3C=C4c5cccc6[nH]c(Br)c(c56)C[C@H]4N(C)C3)(C(C)C)C(=O)N12 [Bromocriptine, reference compound]	1922.3	6/9	–	–	Apomorphine antagonism (ED50) ([1]; p.o.): Inactive at 10 mg/kg; adverse effects [2]: emesis, hypotension, cardiac arrhythmia, digital vasospasm in cold weather, conjunctival irritation, diplopia, nasal stuffiness, constipation and syndrome of bilateral red, tender edema of the lower limbs and neuroendocrine alterations
CN1C(=O)CN(C[C@@H]2C[C@@H]3c4cccc5[nH]cc(c45)C[C@H]3N(C)C2)CC1=O [FCE 23710, 6-Methyl-8β-(3,5-dioxo-4-methyl-piperazin-1-yl-methyl)-ergoline]	1829.2	4/4	2.2 mg/kg	–	–
CN1C[C@H](CN2CC(=O)NC(=O)C2)C=C2c3cccc4[nH]cc(c34)C[C@H]21 [FCE 23884, 6-Methyl-9,10-didehydro-8β-(3,5-dioxo-piperazin-1-yl-methyl)-ergoline]	2146	5/5	0.5 mg/kg	elicits locomotor activity as does apomorphine	No. of contralateral turns (X) in turning rats (6-OHDA lesioned rats; 0.1 mg/kg s.c.): 1317.5; Turning rats/Treated rats (6-OHDA lesioned rats; 0.1 mg/kg s.c.): 9/10; No. of contralateral turns (X) in turning rats (6-OHDA lesioned rats; 0.5 mg/kg s.c.): 2591.7; Turning rats/Treated rats (6-OHDA lesioned rats; 0.5 mg/kg s.c.): 10/10; No. of counts in 85 min. (Reserpine-Treated Mice; 1.0 mg/kg s.c.): 625; reversal of akinesia, time of onset (MPTP treated monkeys; highest dose, 2 mg/kg s.c.): 5 min; reversal of akinesia, time of onset (MPTP treated monkeys; lowest dose, 0.1 mg/kg s.c.): 30 min; effect in lesioned / MPTP treated monkeys (MPTP treated monkeys; s.c.): dopaminergic effect in lesioned animals; also recorded: dopaminergic agent in the MPTP treated monkeys; Reversal of akinesia (MPTP treated monkeys; s.c. once a day, 0.1 mg/kg up to 2 mg/kg): Reversal of akinesia in a dose-dependent fashion was observed; behavioral effect in non-MPTP treated monkeys (non-MPTP treated monkeys): sedative effect in a dose-dependent fashion; also recorded: antidopaminergic in non MPTP-treated monkeys
CN1C[C@H](CN2CC(=O)NC(=O)C2)C[C@@H]2c3cccc4c3c(cn4C)C[C@H]21 [FCE 23952, 1,6-Dimethyl-8β-(3,5-dioxo-piperazin-1-yl-methyl)-ergoline]	710.5	4/4	0.9 mg/kg	–	–
CN1CCc2cccc3c2[C@H]1Cc1ccc(O)c(O)c1-3 [apomorphine, reference compound]	–	–	–	elicits locomotor activity	No. of counts in 85 min. (Reserpine-Treated Mice; 0.05 mg/kg s.c.): 413
